A melting point compilation (Tetko et al.; mined from patent text by program, amines drawn as free bases though some values may be those of a salt)

SMILES	melting point
CN(C)CCSC(=O)c1c[nH]c(=S)n1C1CCc2c(F)cc(F)cc2C1 (stereo not drawn)	204 to 206 °C
CCOCCNC1CCCCC1Cc1ccc(-c2cccc(N)n2)cc1 (stereo not drawn)	70 to 90 °C
Cc1cc2c(cc1Cl)N(C)C(=O)C2(NC(=O)CN1CCN(C)CC1)c1ccc(Cl)cc1 (stereo not drawn)	217 to 219 °C
O=C(c1ccccc1F)c1cc(Cl)ccc1CCCN1C(=O)c2ccccc2C1=O	98 to 99 °C
O=C(O)c1ccccc1OCCN1CCC(c2c[nH]c3ccccc23)CC1	230 °C
COC=C(C(=O)OC)c1ccccc1COc1ccccc1	60 °C
CCN(CC)C(=O)c1ccc2ccccc2c1-c1ccc(OC)cc1	114 to 116 °C
CCCCc1nc(C(C)(C)O)c(C(=O)OCc2oc(=O)oc2C)n1Cc1ccc(-c2ccccc2C(=O)O)cc1	> 70 °C
COc1ccc(OCc2ccccc2)c(C(=O)C=Cc2cccc([N+](=O)[O-])c2)c1	108 to 110 °C
CCCCCCCCCCCCn1nnc(N(C(=O)Nc2ccc(F)cc2F)c2ccccc2)n1	55 to 57 °C
O=C(Nc1ccncc1)c1n[nH]c2ccc(-c3cncc4ccccc34)cc12	> 250 °C
Nc1ccnn1-c1c(F)c(F)c(C(F)(F)F)c(F)c1F	103 to 104 °C
CC(COc1cccc(=O)n1O)CC(C)(C)C (stereo not drawn)	134 °C
CCN1c2ncccc2C(=O)N(C)c2ccc(-c3c[nH]c(C(=O)O)c3)nc21	256 to 257 °C
COCCC1CCN(c2ccc(C#N)c3sccc23)C1 (stereo not drawn)	88 to 89 °C
CC(=O)C1=CCC2C3CCC4CC(O)CCC4(C)C3CCC12C (stereo not drawn)	186 to 188 °C
COc1ccccc1C(C)(O)c1ocnc1C (stereo not drawn)	74 to 75 °C
COCN1C(C)=C(C(=O)OCOC(=O)C(C)(C)C)C(c2cccc([N+](=O)[O-])c2)C(C(=O)OCOC(=O)C(C)(C)C)=C1C	73 to 74 °C
O=S(=O)(c1ccc2c(c1)OC(c1ccccc1)(c1ccccc1)O2)N1CCCCC1	163 to 164 °C
COC(=O)C1(CC(CCCl)=C(C)C)C(=O)C=C(OC(C)C)CC1C (stereo not drawn)	76 to 77 °C
CC(O)(c1nc2ccccc2[nH]1)C(F)(F)F (stereo not drawn)	184 to 187 °C

SMILES	melting point
Clc1ccc(C2Cc3cnc(Nc4ccc(CCN5CCCCC5)cc4)nc3-c3ccccc32)cc1Cl (stereo not drawn)	157 to 158 °C
COCc1cnc(N)nc1N	171 to 174 °C
COC(=O)c1ccc(C(=O)N[C@@H]2CCCC[C@@H]2c2ccc(OC)c(OC)c2)cc1	154 to 156 °C
CC(C)(C)OC(=O)N1CCN(C(=O)C2CCN(C(=O)OCc3ccccc3)C2)CC1 (stereo not drawn)	70 to 74 °C
C[C@](N)(CO)CCc1ccc2oc(-c3ccc(O)cc3)nc2c1	229 to 231 °C
CC(C)(C)OC(=O)N1CCN(c2cccc3ccc(-n4nnc5ncccc54)cc23)CC1	173 to 175 °C
O=c1cnc2cc3[nH]c(-c4ccncc4)nc3cc2[nH]1	> 320 °C
CCC1(CC(=O)OC2OC(=O)c3ccccc32)OCCc2c1[nH]c1cc(OC(F)(F)F)ccc21 (stereo not drawn)	150 °C
COc1cccc2c1CNC2	58.5 to 60 °C
C=C(c1ccc(N(C)C)cc1)c1ccc(N(C)C)cc1C	90 to 91 °C
Cc1ccc2sc(S(=O)(=O)c3ccc(=O)[nH]n3)cc2c1	240 to 242 °C
CCOc1ccc(S(=O)(=O)N2CCN(CC)CC2)cc1C#N	86 to 88 °C
Cn1c(=O)[nH]c(=O)c2c1ncn2CCCCCCO	219 to 220 °C
CC(C)(C)S(=O)(=O)C(=[N+]=[N-])S(=O)(=O)C(C)(C)C	121 to 122 °C
COc1cc(CCCC(=O)OC(C)C)ccc1OCc1nc(-c2ccco2)oc1C	45 to 46 °C
CS(=O)(=O)Oc1cc(C=CC(=O)c2ccccc2)cc([N+](=O)[O-])c1OS(C)(=O)=O	181 to 184 °C
Cc1nsc(Br)c1S(=O)(=O)NC(C)(C)C	118 to 123 °C
CCC(CC)n1c(=O)n(C)c2c(Oc3c(C)cc(C)cc3C)nc(C)cc21	152 to 154 °C
C=CCCc1ccc(NC(=O)OCc2ccccc2)c(O)n1	179 to 180 °C
OCc1cccc(Nc2ncc(-c3ccccc3)s2)n1	196 to 198 °C
CN(C)CCOc1c(-c2ccc(S(C)(=O)=O)cc2)cnn(-c2cccc(Cl)c2)c1=O	110 to 113 °C

SMILES	melting point
CCCC1(CC(=O)O)OCCc2c1[nH]c1c(C)ccc(C(=O)NC)c21 (stereo not drawn)	89 to 91 °C
Cc1c(Br)c(C)c2c(C)coc2c1Cc1ccc(C(C)C)cc1	76 to 77 °C
O=c1c2c(Cl)cc(Cl)cc2n(Cc2ccccc2)c(=O)n1CC1CCCCC1	147 to 149 °C
COC(=O)C(OC)(OC)C(=O)Nc1ccc(Br)cc1C	99 to 103 °C
COc1ccc2nc(NC(=O)c3nnn(Cc4ccc(Cl)c(Cl)c4)c3C)sc2c1	225 °C
Cc1cccc(Cl)c1N1C(=O)CON(C)C1=S	176 to 178 °C
NS(=O)(=O)c1ccc(NN=C2C(=O)Nc3cc(Oc4ccccc4)ccc32)cc1	> 250 °C
CCCCC(CC)COc1ccc(-c2c3ccc(O)cc3c(-c3ccc(OCC(CC)CCCC)cc3)c3ccc(O)cc23)cc1 (stereo not drawn)	195 to 197 °C
CCCc1[nH]c2ccc(OC)cc2c1C=O	166 to 168 °C
COC(=O)c1cc(Cl)c(Cl)c(C2=NOCC2)c1C	74 to 76 °C
CCCCCc1ccc(C(=O)Oc2ccc(C#N)c(F)c2F)cc1	33 °C
O=C(NC1CCC(CCN2CCN(c3nccc4c3OCC4)CC2)CC1)C1CCCOC1 (racemic)	203 °C
CCCc1c(C(=O)C(C)C)c2ccc(C(N)=O)cc2n1Cc1ccccc1C	190 to 191 °C
CC(C)OCC1(C(F)(F)F)c2cc(C#N)ccc2Nc2ncc(C#N)cc21 (stereo not drawn)	226 to 227 °C
COc1ccc(-c2cc(=O)n(Cc3ccccc3)nc2-c2ccc(OC)c(F)c2)cc1F	114 to 115 °C
CCc1c(C(=O)c2cc(C)cc(C)c2)n(C/C=C/COC)c(=O)[nH]c1=O	142 to 143 °C
CC(C)(C)OC(=O)NCCCCNOC(=O)c1ccccc1	113 to 114 °C
CN1CCN(C2=Nc3ccccc3N=C(c3ccccc3)C2)CC1	155 to 157 °C
CCOC(=O)NC(=S)OCc1ccccc1	96 °C
CN(C)Cc1nc(C(=O)N(C)C)nn1-c1ccc(Cl)cc1C(=O)c1ccccc1F	140 to 142 °C

Results, then the compound that gave them:

melting point	SMILES
118 to 119 °C	CCCN(CCC)C(=O)Cc1cn(Cc2ccccc2Br)c2ccccc12
150 to 153 °C	Cc1ccc(NC(=O)c2snnc2C2CC2)cc1Cl
123 to 125 °C	FC(F)(F)c1ccc(-c2cc(C(F)(F)F)c3ncc(I)n3n2)cc1
112 to 113 °C	Cc1nnc(Cl)c(-c2c(F)cc(OCCCN(C)C)cc2F)c1-c1ccc(Cl)cc1
179 to 180 °C	Cn1cnc(S(=O)(=O)N2CCS(=O)(=O)CC2)c1
193 to 196 °C	O=[N+]([O-])c1ccc(O)c(C(=NO)c2ccccc2)c1
180 to 181 °C	CCOc1ccc2c(c1)C(C)=CC(C)(C)N2C1O[C@H](COC(C)=O)[C@@H](OC(C)=O)[C@H](OC(C)=O)[C@H]1OC(C)=O (stereo partly drawn)
38 to 39 °C	CCOC(=O)C(O)(CC(C)(C)c1cc(F)ccc1OC)C(F)(F)F (stereo not drawn)
287 to 289 °C	CCOC(=O)NN=C(C)C1(N)C(O)CC2C3CC=C4CC(OC(C)=O)CCC4(C)C3CCC21C (stereo not drawn)
260 °C	CN1C(=O)C(=O)NCC1(CCO)c1ccc(Cl)c(Cl)c1 (stereo not drawn)
152 °C	CCCC1CCC(C2CCc3c4c(c(F)c(F)c3O2)OCCC4)CC1 (stereo not drawn)
141 to 144 °C	CC(C)(S)CNC(=O)c1nccnc1C(=O)O
98 to 101 °C	CCC(=O)c1ccc(C(=O)CC)cc1
188 to 189 °C	CN1CCN(c2nc3c(cc2F)c(=O)n(OCc2ccccc2)c(=O)n3C2CC2)CC1
97 to 99 °C	Cc1ccc(OCCC(CCl)NC(=O)c2c(F)cccc2F)cc1 (stereo not drawn)
> 260 °C	O=C(Nc1nnc(-c2ccc(Cl)cc2)s1)c1c(Cl)cccc1Cl
> 300 °C	O=C1Nc2cnncc2C(=O)C1c1c(F)cc(F)cc1F (stereo not drawn)
178 to 180 °C	COc1ccc(N2CCN(c3c(C)c(C)c4c(c3C)CC(C)(C)O4)CC2)cn1

melting point	SMILES
160 to 163 °C	CCn1ncc(C(=O)c2cc(C)c3c(c2C)C(=O)C(C)(C)CS3(=O)=O)c1O
212 to 214 °C	Cc1cc2c(-c3cccc(CCC(=O)O)c3)c(CC(=O)Nc3ccc(F)cc3C(F)(F)F)c(=O)oc2cc1Cl
124 °C	COC(=O)C1(NC(=O)Cc2cc(-c3ccc(Cl)cc3)ccc2Cl)CCCCC1
93 to 97 °C	CCCCCCCCOc1cc2cc(C(=O)OC)c(C(=O)OC)c(-c3ccnc(Cl)c3)c2cc1OC
135 to 137 °C	CNC(=O)N1CC(Oc2ccc(Br)cc2)C1
244 to 246 °C	O=CN1C(=O)NC(=O)C12C(=O)N(Cc1ccc(Cl)c(Cl)c1)c1ccccc12 (stereo not drawn)
137 to 139 °C	CNC(=O)C(C)Oc1ncn(-c2cccc(C(F)(F)F)c2)n1 (stereo not drawn)
86 to 87 °C	COCCCOc1cc(CC(CC(NC(=O)OC(C)(C)C)C2CC(C)C(=O)O2)C(C)C)ccc1OC (stereo not drawn)
165 to 166 °C	CC(C)n1nc(-c2sc(NCCN3CCCCC3)nc2-c2ccccc2)ccc1=O
77 to 78 °C	COC(=O)Cc1ccccc1OCc1cncc(OCc2nc(-c3ccccc3)oc2C)c1
122 °C	CCCC[C@@H](NC(=O)[C@H](Cc1ccc(O)cc1)NC(=O)OC(C)(C)C)C(=O)NCC(=O)OCc1ccccc1
150 to 153 °C	CC(C)C1(Br)Cc2cc(OCC(=O)O)c(Cl)c(Cl)c2C1=O (stereo not drawn)
228 °C	Fc1ccc(Cn2c(NC3CCN(CCCCNc4nc5cnccc5[nH]4)CC3)nc3ccccc32)cc1
> 250 °C	C=C(C(=O)c1ccc(C(=O)O)cc1)c1cc(-c2cccs2)ccc1OC
210 to 213 °C	Cc1nn(-c2ccccn2)c2nc3ccccc3c(N)c12
191 to 192 °C	c1cncc(-c2cccc(-n3cnc4cc(-c5ccoc5)cnc43)c2)c1
82 to 83 °C	COC(=O)C(C)(C)CCCCCOc1ccc(N2C(=O)c3ccccc3C2=O)cc1
200 to 203 °C	CC1(COc2nc3ccccc3o2)Cn2cc([N+](=O)[O-])nc2O1 (stereo not drawn)
